Reference: the supplement of paper PMC10307832

Experiments:
Test in all cases: relative viability (nuclei count vs DMSO), 5 days (fraction); higher = more cells survive
[1] = tested on: A-427
In short: (§1)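 Values are medians from duplicate plates. Each reflects relative viability, defined as the nuclei count of treated wells over that of vehicle wells. Lung cancer cell lines in 1536-well plates were pin-tool dosed one day after seeding with one drug alone or with a fixed anchor-drug dose plus five library-drug doses (not always all listed) in √10 steps, then fixed, stained and imaged at 4× after 5 days.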

[2] = tested on: COR-L 105
In short: as §1

[3] = tested on: EPLC-272H
In short: as §1

[4] = tested on: HOP-62
In short: as §1

[5] = tested on: LC-2-ad
In short: as §1

[6] = tested on: LU99A
In short: as §1

[7] = tested on: LXF-289
In short: as §1

[8] = tested on: NCI-H1666
In short: as §1

[9] = tested on: NCI-H1792
In short: as §1

[10] = tested on: NCI-H1793
In short: as §1

[11] = tested on: NCI-H1915
In short: as §1

[12] = tested on: NCI-H1944
In short: as §1

[13] = tested on: NCI-H2009
In short: as §1

[14] = tested on: NCI-H2085
In short: as §1

[15] = tested on: NCI-H2170
In short: as §1

[16] = tested on: NCI-H358
In short: as §1

[17] = tested on: NCI-H460
In short: as §1

[18] = tested on: SK-LU-1
In short: as §1

[19] = tested on: SW 900
In short: as §1

[20] = tested on: UMC-11
In short: as §1

COc1nc(C)cnc1NS(=O)(=O)c1cccnc1-c1ccc(-c2nnco2)cc1 [Zibotentan] + CCNC(=O)c1noc(-c2cc(C(C)C)c(O)cc2O)c1-c1ccc(CN2CCOCC2)cc1 [Luminespib] (partner 0.01 µM)
relative viability ([1]; first compound 0.08 µM): 1.16
relative viability ([1]; first compound 0.253 µM): 0.857
relative viability ([1]; first compound 0.8 µM): 0.998
relative viability ([1]; first compound 2.53 µM): 0.911
relative viability ([2]; first compound 0.08 µM): 0.938
relative viability ([2]; first compound 0.253 µM): 0.693
relative viability ([2]; first compound 0.8 µM): 0.891
relative viability ([2]; first compound 2.53 µM): 0.74
relative viability ([3]; first compound 0.08 µM): 0.234
relative viability ([3]; first compound 0.253 µM): 0.376
relative viability ([3]; first compound 0.8 µM): 0.272
relative viability ([3]; first compound 2.53 µM): 0.254
relative viability ([4]; first compound 0.08 µM): 0.911
relative viability ([4]; first compound 0.253 µM): 0.869
relative viability ([4]; first compound 0.8 µM): 0.906
relative viability ([4]; first compound 2.53 µM): 0.956
relative viability ([5]; first compound 0.08 µM): 1.25
relative viability ([5]; first compound 0.8 µM): 1.32
relative viability ([5]; first compound 2.53 µM): 1.06
relative viability ([6]; first compound 0.08 µM): 0.275
relative viability ([6]; first compound 0.253 µM): 0.242
relative viability ([6]; first compound 0.8 µM): 0.245
relative viability ([6]; first compound 2.53 µM): 0.243
relative viability ([7]; first compound 0.08 µM): 0.657
relative viability ([7]; first compound 0.253 µM): 0.683
relative viability ([7]; first compound 0.8 µM): 0.627
relative viability ([7]; first compound 2.53 µM): 0.756
relative viability ([8]; first compound 0.08 µM): 0.96
relative viability ([8]; first compound 0.253 µM): 0.905
relative viability ([8]; first compound 0.8 µM): 1.02
relative viability ([8]; first compound 2.53 µM): 1.05
relative viability ([9]; first compound 0.08 µM): 0.417
relative viability ([9]; first compound 0.253 µM): 0.362
relative viability ([9]; first compound 0.8 µM): 0.469
relative viability ([9]; first compound 2.53 µM): 0.346
relative viability ([10]; first compound 0.08 µM): 0.172
relative viability ([10]; first compound 0.253 µM): 0.169
relative viability ([10]; first compound 0.8 µM): 0.225
relative viability ([10]; first compound 2.53 µM): 0.169
relative viability ([11]; first compound 0.08 µM): 0.939
relative viability ([11]; first compound 0.253 µM): 0.873
relative viability ([11]; first compound 0.8 µM): 0.754
relative viability ([11]; first compound 2.53 µM): 0.809
relative viability ([12]; first compound 0.08 µM): 0.732
relative viability ([12]; first compound 0.253 µM): 0.694
relative viability ([12]; first compound 0.8 µM): 0.75
relative viability ([12]; first compound 2.53 µM): 0.742
relative viability ([13]; first compound 0.08 µM): 0.959
relative viability ([13]; first compound 0.253 µM): 1.03
relative viability ([13]; first compound 0.8 µM): 1.08
relative viability ([13]; first compound 2.53 µM): 1
relative viability ([14]; first compound 0.08 µM): 0.386
relative viability ([14]; first compound 0.253 µM): 0.423
relative viability ([14]; first compound 0.8 µM): 0.42
relative viability ([14]; first compound 2.53 µM): 0.463
relative viability ([15]; first compound 0.08 µM): 0.397
relative viability ([15]; first compound 0.253 µM): 0.721
relative viability ([15]; first compound 0.8 µM): 0.646
relative viability ([15]; first compound 2.53 µM): 0.691
relative viability ([16]; first compound 0.08 µM): 0.302
relative viability ([16]; first compound 0.8 µM): 0.435
relative viability ([16]; first compound 2.53 µM): 0.555
relative viability ([17]; first compound 0.08 µM): 0.036
relative viability ([17]; first compound 0.253 µM): 0.0258
relative viability ([17]; first compound 0.8 µM): 0.0276
relative viability ([17]; first compound 2.53 µM): 0.0332
relative viability ([18]; first compound 0.08 µM): 0.236
relative viability ([18]; first compound 0.253 µM): 0.171
relative viability ([18]; first compound 0.8 µM): 0.213
relative viability ([18]; first compound 2.53 µM): 0.194
relative viability ([19]; first compound 0.08 µM): 0.203
relative viability ([19]; first compound 0.253 µM): 0.174
relative viability ([19]; first compound 0.8 µM): 0.177
relative viability ([19]; first compound 2.53 µM): 0.172
relative viability ([20]; first compound 0.08 µM): 1.1
relative viability ([20]; first compound 0.253 µM): 0.974
relative viability ([20]; first compound 0.8 µM): 0.978
relative viability ([20]; first compound 2.53 µM): 0.997

O=c1cc(N2CCOCC2)oc2c(-c3cccc4c3sc3ccccc34)cccc12 + CCNC(=O)c1noc(-c2cc(C(C)C)c(O)cc2O)c1-c1ccc(CN2CCOCC2)cc1 [Luminespib] (partner 0.01 µM)
relative viability ([1]; first compound 0.01 µM): 0.944
relative viability ([1]; first compound 0.03162 µM): 0.903
relative viability ([1]; first compound 0.1 µM): 0.898
relative viability ([1]; first compound 0.3162 µM): 0.93
relative viability ([1]; first compound 1 µM): 1.01
relative viability ([2]; first compound 0.01 µM): 0.738
relative viability ([2]; first compound 0.03162 µM): 0.739
relative viability ([2]; first compound 0.1 µM): 0.758
relative viability ([2]; first compound 0.3162 µM): 0.754
relative viability ([2]; first compound 1 µM): 0.603
relative viability ([3]; first compound 0.01 µM): 0.244
relative viability ([3]; first compound 0.03162 µM): 0.449
relative viability ([3]; first compound 0.3162 µM): 0.19
relative viability ([3]; first compound 1 µM): 0.281
relative viability ([4]; first compound 0.01 µM): 1.05
relative viability ([4]; first compound 0.03162 µM): 0.822
relative viability ([4]; first compound 0.1 µM): 0.842
relative viability ([4]; first compound 0.3162 µM): 1.03
relative viability ([4]; first compound 1 µM): 0.974
relative viability ([5]; first compound 0.01 µM): 1.04
relative viability ([5]; first compound 0.03162 µM): 1.12
relative viability ([5]; first compound 0.1 µM): 0.978
relative viability ([5]; first compound 0.3162 µM): 1.03
relative viability ([5]; first compound 1 µM): 1.13
relative viability ([6]; first compound 0.01 µM): 0.266
relative viability ([6]; first compound 0.03162 µM): 0.23
relative viability ([6]; first compound 0.1 µM): 0.232
relative viability ([6]; first compound 0.3162 µM): 0.267
relative viability ([6]; first compound 1 µM): 0.183
relative viability ([7]; first compound 0.01 µM): 0.646
relative viability ([7]; first compound 0.03162 µM): 0.657
relative viability ([7]; first compound 0.1 µM): 0.773
relative viability ([7]; first compound 0.3162 µM): 0.752
relative viability ([7]; first compound 1 µM): 0.714
relative viability ([8]; first compound 0.01 µM): 0.889
relative viability ([8]; first compound 0.03162 µM): 1.01
relative viability ([8]; first compound 0.1 µM): 0.995
relative viability ([8]; first compound 0.3162 µM): 0.969
relative viability ([8]; first compound 1 µM): 0.93
relative viability ([9]; first compound 0.01 µM): 0.502
relative viability ([9]; first compound 0.03162 µM): 0.359
relative viability ([9]; first compound 0.1 µM): 0.576
relative viability ([9]; first compound 0.3162 µM): 0.497
relative viability ([9]; first compound 1 µM): 0.531
relative viability ([10]; first compound 0.01 µM): 0.159
relative viability ([10]; first compound 0.1 µM): 0.173
relative viability ([10]; first compound 0.3162 µM): 0.134
relative viability ([10]; first compound 1 µM): 0.18
relative viability ([11]; first compound 0.01 µM): 0.875
relative viability ([11]; first compound 0.03162 µM): 0.831
relative viability ([11]; first compound 0.1 µM): 0.807
relative viability ([11]; first compound 0.3162 µM): 0.791
relative viability ([11]; first compound 1 µM): 0.855
relative viability ([12]; first compound 0.01 µM): 0.785
relative viability ([12]; first compound 0.03162 µM): 0.758
relative viability ([12]; first compound 0.1 µM): 0.687
relative viability ([12]; first compound 0.3162 µM): 0.728
relative viability ([12]; first compound 1 µM): 0.749
relative viability ([13]; first compound 0.01 µM): 0.931
relative viability ([13]; first compound 0.03162 µM): 0.899
relative viability ([13]; first compound 0.1 µM): 0.995
relative viability ([13]; first compound 0.3162 µM): 0.962
relative viability ([13]; first compound 1 µM): 0.97
relative viability ([14]; first compound 0.01 µM): 0.407
relative viability ([14]; first compound 0.03162 µM): 0.427
relative viability ([14]; first compound 0.1 µM): 0.534
relative viability ([14]; first compound 0.3162 µM): 0.49
relative viability ([14]; first compound 1 µM): 0.48
relative viability ([15]; first compound 0.01 µM): 0.445
relative viability ([15]; first compound 0.03162 µM): 0.668
relative viability ([15]; first compound 0.1 µM): 0.654
relative viability ([15]; first compound 0.3162 µM): 0.548
relative viability ([15]; first compound 1 µM): 0.744
relative viability ([16]; first compound 0.01 µM): 0.235
relative viability ([16]; first compound 0.03162 µM): 0.397
relative viability ([16]; first compound 0.1 µM): 0.33
relative viability ([16]; first compound 0.3162 µM): 0.229
relative viability ([16]; first compound 1 µM): 0.332
relative viability ([17]; first compound 0.01 µM): 0.037
relative viability ([17]; first compound 0.03162 µM): 0.0402
relative viability ([17]; first compound 0.1 µM): 0.0368
relative viability ([17]; first compound 0.3162 µM): 0.035
relative viability ([17]; first compound 1 µM): 0.0452
relative viability ([18]; first compound 0.01 µM): 0.206
relative viability ([18]; first compound 0.03162 µM): 0.234
relative viability ([18]; first compound 0.1 µM): 0.201
relative viability ([18]; first compound 0.3162 µM): 0.206
relative viability ([18]; first compound 1 µM): 0.215
relative viability ([19]; first compound 0.01 µM): 0.203
relative viability ([19]; first compound 0.03162 µM): 0.186
relative viability ([19]; first compound 0.1 µM): 0.173
relative viability ([19]; first compound 0.3162 µM): 0.196
relative viability ([19]; first compound 1 µM): 0.176
relative viability ([20]; first compound 0.01 µM): 0.971
relative viability ([20]; first compound 0.03162 µM): 0.997
relative viability ([20]; first compound 0.1 µM): 1.12
relative viability ([20]; first compound 0.3162 µM): 0.986
relative viability ([20]; first compound 1 µM): 0.982
